Laboratory results from patent publication US10098372B2, “Whitening composition and the use thereof” (INFINITUS (CHINA) COMPANY LTD, priority 2015, dated 2018).

Tests used:
[1] = molecular target: T1, intracellular tyrosinase in melanoma cells from B16 mice (Mus musculus, UniProt P11344); test: Effect on intracellular tyrosinase activity in melanoma cells from B16 mice; assay type: cell-based; settings: 3 days, n = 4, read-out: Inhibitory rate for tyrosinase activity
T1 construct: B16 melanin cells were adjusted with DMEM cell culture medium; endogenous in cells; host or cells: B16 mouse melanoma cells
T1 sequence (P11344 19-533): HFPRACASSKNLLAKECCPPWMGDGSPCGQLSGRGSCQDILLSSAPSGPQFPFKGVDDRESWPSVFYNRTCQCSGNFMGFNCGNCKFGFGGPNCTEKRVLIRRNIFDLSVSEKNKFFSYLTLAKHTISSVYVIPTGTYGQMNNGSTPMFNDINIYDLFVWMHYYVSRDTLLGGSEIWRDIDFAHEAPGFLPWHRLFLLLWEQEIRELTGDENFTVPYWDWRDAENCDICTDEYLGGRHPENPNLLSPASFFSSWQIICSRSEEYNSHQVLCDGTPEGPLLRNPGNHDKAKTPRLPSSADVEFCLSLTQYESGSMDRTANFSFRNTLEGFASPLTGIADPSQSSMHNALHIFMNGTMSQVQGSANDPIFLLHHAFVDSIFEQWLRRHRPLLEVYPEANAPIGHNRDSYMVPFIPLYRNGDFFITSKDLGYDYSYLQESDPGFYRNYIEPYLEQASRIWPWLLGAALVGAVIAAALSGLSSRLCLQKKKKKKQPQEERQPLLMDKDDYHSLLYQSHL
Experimental: The experiments were: B16 melanin cells were adjusted with DMEM cell culture medium containing 10% fetal bovine serum, 100 U/mL penicillin and 100 U/mL streptomycin to reach a density of 1×10^5/mL, and were seeded into 6-well cell culture plates (3 mL per well). After cultured at 37° C., 5% CO2 for 24 h, the test sample (Example 2) was added. After 3 days, the supernatant was discarded, and the cells were washed with PBS for twice. After each well was added 180 μL PBS solution containing 1% (v/v) Triton X-100, the cells were subjected to ultrasonication under ice bath, then each well was added 20 μL 10 mmol/L of L-DOPA, incubated at 37° C. for 60 min. A 1500 r/min centrifugation was conducted for 5 min. 100 μL was respectively taken and transferred to a 96-well cell culture plate, and tested for absorbance at 492 nm via a microplate reader to calculate the inhibitory rate for intracellular tyrosinase activity. The control wells were added with the same volume amount of PBS as that of the sample. The positive control employs arbutin, at an effect concentration of 200 μM. Inhibition rate=(1−A/B)×100%
wherein A is the mean absorbance of the wells containing drug (i.e., sample wells or positive control wells), B is the mean absorbance of the control wells.

[2] = system: melanoma cells from B16 mice; test: Effect on melanin content (melanin synthesis) in melanoma cells from B16 mice; assay type: cell-based; settings: Mus musculus, 72 h, 3 days, n = 4, read-out: The inhibitory rate for melanin synthesis
Experimental: The experiments were: melanoma cells from B16 mice (purchased from Shanghai Fuxiang Biotechnology Co., Ltd.) were adjusted with DMEM cell culture medium containing 10% fetal bovine serum, 100 U/mL penicillin and 100 U/mL streptomycin to reach a density of 1×10^5/mL, and were seeded into 6-well cell culture plates (3 mL per well). After cultured at 37° C., 5% CO2 for 24 h, the test sample (Example 2) was added. After 3 days, the supernatant was discarded, and the cells were washed with PBS, then added with trypsin to degest the cells for 3 min (0.5 mL per well). Afterwards, 2 mL cell culture medium was added to terminate the digestion reaction, and cells of each group were counted. After centrifugation, the supernatant was discarded, and 0.5 mL of 1 mol/L NaOH solution was added. After vibrated for 1 h, a 1500 r/min centrifugation was conducted for 5 min. 200 μL was respectively taken and transferred to a 96-well cell culture plate, and tested for absorbance at 450 nm via a microplate reader to calculate the inhibitory rate for melanin synthesis. In the experiment, the control wells were added with the same volume amount of PBS as that of the sample. […]
A is the absorbance of the wells containing drug (i.e., sample wells or positive control wells), B is the number of cells in the wells containing drug, C the absorbance of the control wells, D is the number of cells in control wells.

inhibition at 400 µM [1]: 49 ± 9.44%
SMILES: OC[C@H]1O[C@@H](Oc2ccc(O)cc2)[C@H](O)[C@@H](O)[C@@H]1O [Arbutin]
inhibition at 200 µM [2]: 46.7 ± 10%
